Consider 27 molecules from US8859584B2, “TRPV1 antagonists” (AbbVie Inc., priority 2011, dated 2014).

Like-named read-outs stand apart in the source and are kept apart here.

Assay [1] concerns the target T1, human TRPV1 (Homo sapiens, UniProt Q8NER1).
T1 construct: expressed in transfected cells
Put plainly: Acid Activation Assay (pH 5.0, FLIPR intracellular Ca2+, recombinant HEK293 cells). It counts as cell-based. Particulars: percentage of maximal pH 5.0-induced response remaining; HEK293 hTRPV1; max concentration 37.5 μM. An outline of the steps:
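HEK293 cells stably expressing recombinant hTRPV1 were loaded with calcium dye for 90-120 min at 25° C and pre-treated with compound for 3 min before a pH 5.0 (DPBS/MES) challenge. Peak FLIPR fluorescence over baseline is given as percentage of the maximal pH 5.0-induced response.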

The target in assay [2] is T1, human TRPV1. Kind of assay: Capsaicin Activation Assay (FLIPR intracellular Ca2+, recombinant HEK293 cells). It counts as cell-based.
Setting [3] is: recombinant HEK293 cells expressing hTRPV1, 50 nM capsaicin, read-out: human TRPV1 capsaicin IC50.

T1 sequence (Q8NER1 whole entry): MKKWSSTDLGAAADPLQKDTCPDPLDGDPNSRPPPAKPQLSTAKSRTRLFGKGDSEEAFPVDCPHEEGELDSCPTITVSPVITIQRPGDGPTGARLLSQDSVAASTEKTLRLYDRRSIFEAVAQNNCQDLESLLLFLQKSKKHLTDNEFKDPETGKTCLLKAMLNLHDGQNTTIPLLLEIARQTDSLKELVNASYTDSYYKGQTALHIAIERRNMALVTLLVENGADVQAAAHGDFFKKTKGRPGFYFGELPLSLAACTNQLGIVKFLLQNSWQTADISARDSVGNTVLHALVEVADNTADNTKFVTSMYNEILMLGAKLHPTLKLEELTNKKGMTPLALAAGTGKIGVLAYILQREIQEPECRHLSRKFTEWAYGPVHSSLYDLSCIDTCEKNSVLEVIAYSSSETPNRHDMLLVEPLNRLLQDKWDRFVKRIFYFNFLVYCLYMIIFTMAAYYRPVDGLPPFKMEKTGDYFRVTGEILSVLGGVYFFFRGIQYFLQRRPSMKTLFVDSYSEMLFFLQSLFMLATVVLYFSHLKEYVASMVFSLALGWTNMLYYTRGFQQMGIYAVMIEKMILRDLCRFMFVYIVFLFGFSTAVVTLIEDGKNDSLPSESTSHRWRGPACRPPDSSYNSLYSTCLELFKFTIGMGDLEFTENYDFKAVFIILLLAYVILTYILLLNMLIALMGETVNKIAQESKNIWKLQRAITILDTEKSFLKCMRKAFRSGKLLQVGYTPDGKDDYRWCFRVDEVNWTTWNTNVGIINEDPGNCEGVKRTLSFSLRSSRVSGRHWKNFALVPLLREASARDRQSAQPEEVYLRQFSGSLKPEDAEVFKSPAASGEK

In the case of `C[C@]1(CF)C[C@@H](NC(=O)Nc2ccc3c(c2)C(O)C3)c2ccc(Cl)cc2O1` (stereo partly drawn) [Example 131, 1-[(2R,4R)-7-chloro-2-(fluoromethyl)-2-methyl-3,4-dihydro-2H-chromen-4-yl]-3-(8-hydroxybicyclo[4.2.0]octa-1,3,5-trien-3-yl)urea], on human TRPV1 [1], the “human TRPV1 H+ (max % remain)” value was 92%. Besides, the IC50 at human TRPV1 [2] (setting [3]) amounted to 1000 nM.
For `O=C(Nc1cccc2c1C[C@@H](O)C2)N[C@H]1CCOc2cc(OC(F)(F)F)ccc21` [Example 94, 1-[(2S)-2-hydroxy-2,3-dihydro-1H-inden-4-yl]-3-[(4S)-7-(trifluoromethoxy)-3,4-dihydro-2H-chromen-4-yl]urea] the same measures were 47% and 5900 nM.
Turning to `O=C(Nc1ccc(F)c2c1C[C@H](O)C2)N[C@@H]1CC(CF)(CF)Oc2cc(OC(F)(F)F)ccc21` [Example 139, 1-[(4R)-2,2-bis(fluoromethyl)-7-(trifluoromethoxy)-3,4-dihydro-2H-chromen-4-yl]-3-[(2S)-7-fluoro-2-hydroxy-2,3-dihydro-1H-inden-4-yl]urea], on human TRPV1 [1], the “human TRPV1 H+ (max % remain)” value is reported as 2%. For the same molecule, the IC50 at human TRPV1 [2] (setting [3]) turned out to be 370 nM.
The matching figures for `O=C(Nc1cccc2c1CC(O)C2)NC1c2ccccc2CC1Cc1ccccc1` (stereo not drawn) [Example 125, 1-(2-benzyl-2,3-dihydro-1H-inden-1-yl)-3-(2-hydroxy-2,3-dihydro-1H-inden-4-yl)urea]: 83% and 3500 nM.
`O=C(Nc1ccc(F)c2c1C[C@H](O)C2)N[C@@H]1CC(CF)(CF)Oc2cc(Cl)ccc21` [Example 134, 1-[(4R)-7-chloro-2,2-bis(fluoromethyl)-3,4-dihydro-2H-chromen-4-yl]-3-[(2S)-7-fluoro-2-hydroxy-2,3-dihydro-1H-inden-4-yl]urea]: at human TRPV1 [1], the “human TRPV1 H+ (max % remain)” value stood at 3%. Besides, the 50% inhibitory concentration (IC50) at human TRPV1 [2] was 349 nM.
Consider `CC1(C)C[C@@H](NC(=O)Nc2cccc3c2C[C@@H](O)C3)c2cc(F)ccc2O1` [Example 83, 1-[(4R)-6-fluoro-2,2-dimethyl-3,4-dihydro-2H-chromen-4-yl]-3-[(2S)-2-hydroxy-2,3-dihydro-1H-inden-4-yl]urea], for which the “human TRPV1 H+ (max % remain)” value at human TRPV1 [1] amounted to 27%. The IC50 on human TRPV1 [2] (setting [3]) was determined as 790 nM.
Take `CN1CC[C@@H](NC(=O)Nc2cccc3c2C[C@@H](O)C3)c2ccc(C(F)(F)F)cc21` [Example 84, 1-[(2S)-2-hydroxy-2,3-dihydro-1H-inden-4-yl]-3-[(4R)-1-methyl-7-(trifluoromethyl)-1,2,3,4-tetrahydroquinolin-4-yl]urea]: the “human TRPV1 H+ (max % remain)” value on human TRPV1 [1] is 13%. Besides, the IC50 at human TRPV1 [2] (setting [3]) is 80 nM.
The matching figures for `CC(C)(C)c1ccc2c(c1)CC[C@H]2NC(=O)Nc1cccc2c1C[C@H](O)C2` [Example 50, 1-[(1R)-5-tert-butyl-2,3-dihydro-1H-inden-1-yl]-3-[(2R)-2-hydroxy-2,3-dihydro-1H-inden-4-yl]urea]: 69% and 32 nM.
For `CC1(C)C[C@H](NC(=O)Nc2cccc3c2C[C@H](O)C3)c2cc(F)ccc2O1` [Example 104, 1-[(4S)-6-fluoro-2,2-dimethyl-3,4-dihydro-2H-chromen-4-yl]-3-[(2R)-2-hydroxy-2,3-dihydro-1H-inden-4-yl]urea] the same measures were 100% and greater than 38000 nM.
As to `CC1(C(F)F)C[C@@H](NC(=O)Nc2cccc3c2C[C@H](O)C3)c2cc(Cl)ccc2O1` (stereo partly drawn) [Example 61, 1-[(4R)-6-chloro-2-(difluoromethyl)-2-methyl-3,4-dihydro-2H-chromen-4-yl]-3-[(2R)-2-hydroxy-2,3-dihydro-1H-inden-4-yl]urea], the “human TRPV1 H+ (max % remain)” value on human TRPV1 [1] is on record as 69%. Besides, the IC50 on human TRPV1 [2] (setting [3]) was found to be 20 nM.
In the case of `CCC1(CC)C[C@@H](NC(=O)Nc2cccc3c2C[C@H](O)C3)c2cc(F)ccc2O1` [Example 58, 1-[(4R)-2,2-diethyl-6-fluoro-3,4-dihydro-2H-chromen-4-yl]-3-[(2R)-2-hydroxy-2,3-dihydro-1H-inden-4-yl]urea], the “human TRPV1 H+ (max % remain)” value on human TRPV1 [1] is 67%. For the same molecule, the half-inhibitory concentration (IC50) on human TRPV1 [2] (setting [3]) came to 24 nM.
In the case of `O=C(Nc1cccc2c1C[C@H](O)C2)NC1COc2cc(Cl)ccc2C1` (stereo partly drawn) [Example 99, 1-(7-chloro-3,4-dihydro-2H-chromen-3-yl)-3-[(2R)-2-hydroxy-2,3-dihydro-1H-inden-4-yl]urea], the “human TRPV1 H+ (max % remain)” value on human TRPV1 [1] is listed as 75%. Further, the IC50 on human TRPV1 [2] (setting [3]) is 570 nM.
For “1-[(4R)-7-fluoro-2,2-dimethyl-3,4-dihydro-2H-chromen-4-yl]-3-[(2R)-7-fluoro-2-hydroxy-2,3-dihydro-1H-inden-4-yl]urea [Example 158]”, the “human TRPV1 H+ (max % remain)” value at human TRPV1 [1] is on record as 48%. The IC50 at human TRPV1 [2] (setting [3]) is 600 nM.
For `O=C(Nc1ccc(F)c2c1C[C@H](O)C2)N[C@@H]1CCOc2cc(OC(F)(F)F)ccc21` [Example 150, 1-[(2S)-7-fluoro-2-hydroxy-2,3-dihydro-1H-inden-4-yl]-3-[(4R)-7-(trifluoromethoxy)-3,4-dihydro-2H-chromen-4-yl]urea] the same measures were 3% and 1600 nM.
For `CC1(C)C[C@@H](NC(=O)Nc2cccc3c2C[C@@H](O)C3)c2ccc(F)cc2O1` [Example 32, 1-[(4R)-7-fluoro-2,2-dimethyl-3,4-dihydro-2H-chromen-4-yl]-3-[(2S)-2-hydroxy-2,3-dihydro-1H-inden-4-yl]urea] the same measures were 33% and 74 nM.
With `CC1(C)C[C@@H](NC(=O)Nc2cccc3c2C[C@H](O)C3)c2cccc(OC(F)(F)F)c2O1` [Example 19, 1-[(4R)-2,2-dimethyl-8-(trifluoromethoxy)-3,4-dihydro-2H-chromen-4-yl]-3-[(2R)-2-hydroxy-2,3-dihydro-1H-inden-4-yl]urea], on human TRPV1 [1], the “human TRPV1 H+ (max % remain)” value was 71%. In addition, the IC50 at human TRPV1 [2] (setting [3]) came out at 14 nM.
For `C[C@@]1(CF)C[C@@H](NC(=O)Nc2cccc3c2C[C@H](O)C3)c2ccc(C(F)(F)F)cc2O1` [Example 44, 1-[(2S,4R)-2-(fluoromethyl)-2-methyl-7-(trifluoromethyl)-3,4-dihydro-2H-chromen-4-yl]-3-[(2R)-2-hydroxy-2,3-dihydro-1H-inden-4-yl]urea] the same measures were 52% and 42 nM.
For `O=C(Nc1cccc2c1C[C@H](O)C2)N[C@@H]1CC(CF)(CF)Oc2cc(Br)ccc21` [Example 45, 1-[(4R)-7-bromo-2,2-bis(fluoromethyl)-3,4-dihydro-2H-chromen-4-yl]-3-[(2R)-2-hydroxy-2,3-dihydro-1H-inden-4-yl]urea] the same measures were 58% and 43 nM.
For `O=C(Nc1cccc2c1C[C@H](O)C2)N[C@@H]1CC(CF)(CF)Oc2cc(C(F)F)ccc21` [Example 130, 1-[(4R)-7-(difluoromethyl)-2,2-bis(fluoromethyl)-3,4-dihydro-2H-chromen-4-yl]-3-[(2R)-2-hydroxy-2,3-dihydro-1H-inden-4-yl]urea], the “human TRPV1 H+ (max % remain)” value on human TRPV1 [1] amounted to 85%. For the same molecule, the IC50 on human TRPV1 [2] (setting [3]) is 34000 nM.
For `CN1CC[C@@H](NC(=O)Nc2cccc3c2C[C@H](O)C3)c2ccc(C(F)(F)F)cc21` [Example 23, 1-[(2R)-2-hydroxy-2,3-dihydro-1H-inden-4-yl]-3-[(4R)-1-methyl-7-(trifluoromethyl)-1,2,3,4-tetrahydroquinolin-4-yl]urea] the same measures were 74% and 51 nM.
For `CC1(C)C[C@@H](NC(=O)Nc2ccc(F)c3c2C[C@@H](O)C3)c2cc(F)ccc2O1` [Example 165, 1-[(4R)-6-fluoro-2,2-dimethyl-3,4-dihydro-2H-chromen-4-yl]-3-[(2R)-7-fluoro-2-hydroxy-2,3-dihydro-1H-inden-4-yl]urea] the same measures were 49% and 2600 nM.
For `O=C(Nc1cccc2c1C[C@@H](O)C2)N[C@@H]1CCOc2cc(OC(F)(F)F)ccc21` [Example 37, 1-[(2S)-2-hydroxy-2,3-dihydro-1H-inden-4-yl]-3-[(4R)-7-(trifluoromethoxy)-3,4-dihydro-2H-chromen-4-yl]urea] the same measures were 4% and 17 nM.
Regarding `Cc1cccnc1N1CC=C(C(=O)Nc2ccc(S(=O)(=O)C(F)(F)F)cc2)CC1` [E, reference compound], the “human TRPV1 H+ (max % remain)” value at human TRPV1 [1] came out at 2%. Also, the IC50 on human TRPV1 [2] (setting [3]) was 100 nM.
`CC1(C)C[C@@H](NC(=O)Nc2cccc3c2C[C@@H](O)C3)c2ccccc2O1` [Example 82, 1-[(4R)-2,2-dimethyl-3,4-dihydro-2H-chromen-4-yl]-3-[(2S)-2-hydroxy-2,3-dihydro-1H-inden-4-yl]urea]: the “human TRPV1 H+ (max % remain)” value at human TRPV1 [1] is recorded as 56%. In addition, the IC50 on human TRPV1 [2] (setting [3]) was determined as 510 nM.
As for `CC1(C)C[C@@H](NC(=O)Nc2cccc3c2C[C@H](O)C3)c2cccc(F)c2O1` [Example 46, 1-[(4R)-8-fluoro-2,2-dimethyl-3,4-dihydro-2H-chromen-4-yl]-3-[(2R)-2-hydroxy-2,3-dihydro-1H-inden-4-yl]urea], the “human TRPV1 H+ (max % remain)” value on human TRPV1 [1] was 87%. At human TRPV1 [2] (setting [3]), the IC50 is 430 nM.
The matching figures for `O=C(Nc1ccc(F)c2c1C[C@H](O)C2)N[C@@H]1CC(CF)(CF)Oc2c(F)cccc21` [Example 152, 1-[(4R)-8-fluoro-2,2-bis(fluoromethyl)-3,4-dihydro-2H-chromen-4-yl]-3-[(2S)-7-fluoro-2-hydroxy-2,3-dihydro-1H-inden-4-yl]urea]: 3% and 5500 nM.
The matching figures for `C[C@@]1(C(F)F)C[C@@H](NC(=O)Nc2cccc3c2C[C@H](O)C3)c2ccccc2O1` [Example 126, 1-[(2S,4R)-2-(difluoromethyl)-2-methyl-3,4-dihydro-2H-chromen-4-yl]-3-[(2R)-2-hydroxy-2,3-dihydro-1H-inden-4-yl]urea]: 88% and 1400 nM.
